Source: US20210244721A1, “SMALL MOLECULE ENTEROVIRUS INHIBITORS AND USES THEREOF” (priority 2020, published 2021)
Read-outs that look alike come from different tables or passages of the source.

What was measured:
[1] = system: EV-D68 US/KY/14-18953 virus; assay: CPE assay, EV-D68 US/KY/14-18953 in RD cells; format: cell-based, Enterovirus D68 (EV-D68); details: EV-D68 US/KY/14-18953, RD cells; for EC50: CPE assay
[2] = Cytotoxicity, neutral red method, RD cells; details: human, RD (rhabdomyosarcoma) cells
[3] = system: RD cells; assay: Cytotoxicity, neutral red method, RD cells; details: RD cells, neutral red method
[4] = system: EV-A71 Tainan/4643/98; assay: CPE assay, EV-A71 Tainan in RD cells; format: cell-based; details: Enterovirus A, EVA71; EV-A71 Tainan, RD cells; read-out: EC50
[5] = system: EV-A71 US/AK/16-19516; assay: CPE assay, EV-A71 US/AK in RD cells; format: cell-based; details: Enterovirus A, EVA71
[6] = system: CVB3; assay: CPE assay, CVB3 in Vero C1008 cells; format: cell-based, coxsackievirus B3 (CVB3); details: Enterovirus B; CVB3, Vero C1008 cells; read-out: EC50
[7] = Enterovirus D, EVD68, RD, read-out: EC50

SMILES	EC50 [1, 7]	CC50 at 3 days [2]	SI = selectivity index (CC50/EC50) [1]	further results
CN(C)CCOC(=O)c1cc(-c2ccccc2)nc2ccccc12 [Compound 6ab, 2-(dimethylamino)ethyl 2-phenylquinoline-4-carboxylate]	> 50 µM	78.9 µM		
CNCCCNC(=O)c1cc(-c2ccccc2)nc2ccccc12 [Compound 6ac, N-[3-(methylamino)propyl]-2-phenylquinoline-4-carboxamide]	8.9 µM	93.6 µM	SI50 = 10.5	
NCCCNC(=O)c1cc(-c2ccccc2)nc2ccccc12 [Compound 6ad, N-(3-aminopropyl)-2-phenylquinoline-4-carboxamide]	7.2 µM	168 µM	SI50 = 23.4	
O=C(NCC1CNC1)c1cc(-c2ccccc2)nc2ccccc12 [Compound 6ag, N-[(azetidin-3-yl)methyl]-2-phenylquinoline-4-carboxamide]	5.8 µM	43.2 µM		
O=C(NCC1(O)CNC1)c1cc(-c2ccccc2)nc2ccccc12 [Compound 6ah, N-[(3-hydroxyazetidin-3-yl)methyl]-2-phenylquinoline-4-carboxamide]	5.1 µM	82.2 µM		
O=C(NCCC1CCCN1)c1cc(-c2ccccc2)nc2ccccc12 (stereo not shown) [Compound 6ai, 2-phenyl-N-[2-(pyrrolidin-2-yl)ethyl]quinoline-4-carboxamide]	6 µM	19.1 µM		
O=C(NC1CNC1)c1cc(-c2ccccc2)nc2ccccc12 [Compound 6aj, N-(azetidin-3-yl)-2-phenylquinoline-4-carboxamide]	4.2 µM	36.6 µM		
CN1CC(NC(=O)c2cc(-c3ccccc3)nc3ccccc23)C1 [Compound 6ak, N-(1-methylazetidin-3-yl)-2-phenylquinoline-4-carboxamide]	2.9 µM	46.8 µM		
CC1(CNC(=O)c2cc(-c3ccccc3)nc3ccccc23)CNC1 [Compound 6al, N-[(3-methylazetidin-3-yl)methyl]-2-phenylquinoline-4-carboxamide]	6.9 µM	49.5 µM		
O=C(NCC1CCCNC1)c1cc(-c2ccccc2)nc2ccccc12 (stereo not shown) [Compound 6am]	7.1 µM	30.1 µM	SI50 = 4.2	
NCCNC(=O)c1cc(-c2ccccc2)nc2ccccc12 [Compound 6an, N-(2-aminoethyl)-2-phenylquinoline-4-carboxamide]	1.2 µM	44.9 µM	SI50 = 37.4	
N=C(N)NCCNC(=O)c1cc(-c2ccccc2)nc2ccccc12 [Compound 6ao, N-(2-carbamimidamidoethyl)-2-phenylquinoline-4-carboxamide]	3.3 µM	> 200 µM	SI50 >60.6	
CC(CN)NC(=O)c1cc(-c2ccccc2)nc2ccccc12 (stereo not shown) [Compound 6ap, N-(1-aminopropan-2-yl)-2-phenylquinoline-4-carboxamide]	1.2 µM	89.1 µM	SI50 = 74.3	
[2H]c1c([2H])c([2H])c(-c2cc(C(=O)NCCNC)c3ccccc3n2)c([2H])c1[2H] [Compound 6as, N-[2-(methylamino)ethyl]-2 [(2,3,4,5,6-^2H5)phenyl]quinoline-4-carboxamide]	1.1 µM	101 µM	SI50 = 91.6	
[2H]c1c([2H])c([2H])c(-c2cc(C(=O)NCCN)c3ccccc3n2)c([2H])c1[2H] [Compound 6at, N-(2-aminoethyl)-2 [(2,3,4,5,6-^2H5)phenyl]quinoline-4-carboxamide]	2.2 µM	100 µM	SI50 = 45.6	
[2H]c1c([2H])c([2H])c(-c2cc(C(=O)NCC3CNC3)c3ccccc3n2)c([2H])c1[2H] [Compound 6au, N-[(azetidin-3-yl)methyl]-2 [(2,3,4,5,6-^2H5)phenyl]quinoline-4-carboxamide]	6.4 µM	188 µM	SI50 = 29.5	
O=C(NC1CNC1)c1cc(-c2ccc(F)cc2)nc2ccccc12 [Compound 6ay, N-(azetidin-3-yl)-2-(4-fluorophenyl)quinoline-4-carboxamide]	1.1 µM	46.7 µM	SI50 = 42.5	
O=C(NCC1CNC1)c1cc(-c2ccc(F)cc2)nc2ccccc12 [Compound 6az, N-[(azetidin-3-yl)methyl]-2-(4-fluorophenyl)quinoline-4-carboxamide]	1.2 µM	50.6 µM	SI50 = 42.2	
CN(C)CCNC(=O)c1cc(-c2c(F)cccc2F)nc2ccccc12 [Compound 6bb, 2-(2,6-difluorophenyl)-N-[2-(dimethylamino)ethyl]quinoline-4-carboxamide]	12.1 µM	93 µM	SI50 = 7.7	
CN(C)CCNC(=O)c1cc(-c2c(F)cc(F)cc2F)nc2ccccc12 [Compound 6bc, N-[2-(dimethylamino)ethyl]-2-(2,4,6-trifluorophenyl)quinoline-4-carboxamide]	3.6 µM	39.2 µM	SI50 = 10.9	

SMILES	EC50 [1, 7]	CC50 at 3 days [2]	SI = selectivity index (CC50/EC50) [1]	further results
CN(C)CCNC(=O)c1cc(-c2cc(F)c(F)c(F)c2)nc2ccccc12 [Compound 6bd, N-[2-(dimethylamino)ethyl]-2-(3,4,5-trifluorophenyl)quinoline-4-carboxamide]	> 300 µM	38 µM		
CN(C)CCNC(=O)c1cc(-c2c(F)c(F)c(F)c(F)c2F)nc2ccccc12 [Compound 6be, N-[2-(dimethylamino)ethyl]-2-(2,3,4,5,6-pentafluorophenyl)quinoline-4-carboxamide]	10.8 µM	148 µM	SI50 = 13.7	
CN1CC(NC(=O)c2cc(-c3cccs3)nc3ccccc23)C1 [Compound 6bh, N-(1-methylazetidin-3-yl)-2-(thiophen-2-yl)quinoline-4-carboxamide]	1 µM	42.6 µM	SI50 = 42.6	
CC(CN)NC(=O)c1cc(-c2cccs2)nc2ccccc12 (stereo not shown) [Compound 6bm, N-(1-aminopropan-2-yl)-2-(thiophen-2-yl)quinoline-4-carboxamide]	0.5 µM	23.8 µM	SI50 = 47.6	
O=C(NCC1CNC1)c1cc(-c2cccs2)nc2ccccc12 [Compound 6bn, N-[(azetidin-3-yl)methyl]-2-(thiophen-2-yl)quinoline-4-carboxamide]	1.2 µM	28.3 µM	SI50 = 23.6	
NCCNC(=O)c1cc(-c2ccco2)nc2ccccc12 [Compound 6bp, N-(2-aminoethyl)-2-(furan-2-yl)quinoline-4-carboxamide]	4.4 µM	147 µM	SI50 = 33.4	
O=C(NC1CNC1)c1cc(-c2ccco2)nc2ccccc12 [Compound 6bq, N-(azetidin-3-yl) 2-(furan-2-yl)quinoline-4-carboxamide]	11.1 µM	161 µM	SI50 = 14.5	
O=C(NCC1CNC1)c1cc(-c2ccco2)nc2ccccc12 [Compound 6br, N-[(azetidin-3-yl)methyl]-2-(furan-2-yl)quinoline-4-carboxamide]	11.5 µM	170 µM	SI50 = 14.8	
NCCNC(=O)c1cc(-c2ccco2)nc2c(Cl)cccc12 [Compound 6bs, N-(2-aminoethyl)-8-chloro-2-(furan-2-yl)quinoline-4-carboxamide]	1 µM	50.5 µM	SI50 = 50.5	
NNC(=O)c1cc(-c2cccs2)nc2ccccc12 [Compound 12e, 2-(thiophen-2-yl)quinoline-4-carbohydrazide]			>8.4	CC50 [3]: > 100 µM
CNCCNC(=O)c1cc(-c2ccccc2)nc2ccccc12 [drawing 182]				EC50 [4]: 7.8 µM; EC50 [5]: > 10 µM; EC50 [6]: 1.1 µM
CC(CN(C)C)NC(=O)c1cc(-c2ccccc2)nc2ccccc12 (stereo not shown) [drawing 183]				EC50 [4]: 18.3 µM; EC50 [5]: 11.7 µM; EC50 [6]: 2 µM
CNCCNC(=O)c1cc(-c2ccc(F)cc2)nc2ccccc12 [drawing 186]				EC50 [1]: 0.2 µM; EC50 [4]: 3.1 µM; EC50 [6]: 0.2 µM
CN(C)CCNC(=O)c1cc(-c2ccc(F)cc2F)nc2ccccc12 [drawing 188]				EC50 [4]: 7.9 µM; EC50 [5]: > 10 µM; EC50 [6]: 0.4 µM
CN(C)CCNC(=O)c1cc(-c2cccs2)nc2ccccc12 [drawing 189]				EC50 [1]: 0.04 µM; EC50 [4]: 2.9 µM; EC50 [5]: > 10 µM; EC50 [6]: 0.07 µM
CC(CN(C)C)NC(=O)c1cc(-c2cccs2)nc2ccccc12 (stereo not shown) [drawing 190]				EC50 [4]: 7.9 µM; EC50 [5]: 8.8 µM; EC50 [6]: 0.4 µM
CN1CCC(NC(=O)c2cc(-c3cccs3)nc3ccccc23)C1 (stereo not shown) [drawing 191]				EC50 [4]: 6.3 µM; EC50 [5]: 8 µM; EC50 [6]: 0.2 µM
NCCNC(=O)c1cc(-c2cccs2)nc2ccccc12 [drawing 193]				EC50 [4]: 38.3 µM; EC50 [5]: > 30 µM; EC50 [6]: 0.6 µM
CN(C)CCNC(=O)c1cc(-c2ccco2)nc2ccccc12 [drawing 194]				EC50 [4]: 30.9 µM; EC50 [5]: 20.9 µM; EC50 [6]: 1.2 µM
